Counter-ions that a name gives are not always drawn.
Tested on: MTT (mouse pheochromocytoma)
Experiment: IC50 of cell viability (ATP content)
Conditions: (24 or 48 h)
In short: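 MTT mouse pheochromocytoma cells in white 1536-well plates were treated for 24 or 48 hrs with library compounds at 8 final concentrations from 0.5 nM to 46 µM. ATP content was measured with CellTiter-Glo luminescence, using positive-control wells as 100% and DMSO wells as 0%. IC50 came from a four-parameter logistic fit.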

SMILES	IC50 of cell viability [µM]
CC[C@]1(C)CC(=O)NC1=O [Ethosuximide]	> 46
CCN1C(=O)N[C@@H](c2ccccc2)C1=O [Ethotoin]	> 46
CCOC1=CC\2=C(NC(C)(C)\C=C2C)C=C1 [Ethoxyquin]	> 46
CCOC(C)=O [Ethyl acetate]	> 46
CCOC(=O)c1ccccc1O [Ethyl salicylate]	> 46
OCCOc1ccccc1 [Ethylene glycol monophenyl ether]	> 46
NCCN [Ethylenediamine]	> 46
CCOC(=O)c1ccc(O)cc1 [Ethylparaben]	> 46
CCOc1cc(C=O)ccc1O [Ethylvanillin]	> 46
C#CC1(OC(C)=O)CCC2C3CCC4=CC(OC(C)=O)CCC4C3CCC21C (stereo not drawn) [Ethynodiol Diacetate]	> 46
CCc1cc(Cl)c(OC)c(C(=O)NC[C@@H]2CCCN2CC)c1O [Eticlopride hydrochloride]	> 46
CCCN(CC)[C@@H](CC)C(=O)Nc1c(C)cccc1C [Etidocaine]	> 46
CCc1cccc(CC)c1NC(=O)CN(CC(=O)O)CC(=O)O [Etifenin]	> 46
CCNC[C@H](O)c1cccc(O)c1 [Etilefrine hydrochloride]	> 46
CCC(C(N)=O)N1CCCC1=O (stereo not drawn) [Etiracetam]	> 46
CCOc1ccc(NC(=S)Nc2ccc(OCC)cc2)cc1 [Etocarlida]	> 46
CCOC(=O)C(\C#N)=C(/C1=CC=CC=C1)C2=CC=CC=C2 [Etocrylene]	> 46
CCc1cccc2c3c([nH]c12)[C@](CC)(CC(=O)O)OCC3 [Etodolac]	> 46
O=C(OCCOCCO)c1ccccc1Nc1cccc(C(F)(F)F)c1 [Etofenamate]	> 46
CCOC(=O)c1cncn1[C@@H](C)c1ccccc1 [Etomidate]	> 46
COc1cc([C@H]2c3cc4c(cc3[C@@H](O[C@@H]3O[C@H]5CO[C@@H](C)O[C@@H]5[C@@H](O)[C@H]3O)[C@@H]3COC(=O)[C@H]23)OCO4)cc(OC)c1O [Etoposide]	> 46
CC12CCC(CC1)C(C)(C)O2 [Eucalyptol]	> 46
C[C@@H]1C[C@@H](OC(=O)[C@@H](O)c2ccccc2)CC(C)(C)N1C [Eucatropine hydrochloride]	> 46
C=CCc1ccc(O)c(OC)c1 [Eugenol]	> 46
CC(=O)OCC(CCn1cnc2cnc(N)nc21)COC(C)=O [FAMCICLOVIR]	> 46

SMILES	IC50 of cell viability [µM]
NC(N)=Nc1nc(CSCC/C(N)=N/[S+](N)(=O)[O-])cs1 [FAMOTIDINE]	> 46
COP(=S)(OC)Oc1ccc([S+](=O)([O-])N(C)C)cc1 [FAMPHUR]	> 46
O=[S+]1([O-])c2cccc3cccc(c23)N1CCCN1CCN(c2ccc(F)cc2)CC1 [FANANSERINUM]	> 46
O=c1[nH]c2cc(C(F)(F)F)c(N3CCOCC3)cc2n(CP(=O)(O)O)c1=O [FANAPANELUM]	> 46
O=C1CC[C@H](C(=O)N2CCCCC2)N1 [FASORACETAM HYDRATE]	> 46
NC(=O)OCC(COC(N)=O)c1ccccc1 [FELBAMATE]	> 46
CCOC(=O)Cc1ccc(-c2ccccc2)cc1 [FELBINAC ETHYL]	> 46
NCCCCC(NC(=O)C1CCCN1C(=O)C1CSSCC(N)C(=O)NC(Cc2ccccc2)C(=O)NC(Cc2ccccc2)C(=O)NC(CCC(N)=O)C(=O)NC(CC(N)=O)C(=O)N1)C(=O)NCC(N)=O (stereo not drawn) [FELYPRESSIN]	> 46
Nc1ccc(C(=O)Oc2ccccc2)c(O)c1 [FENAMISAL]	> 46
CC12CCC(C1)C(C)(C)C2=O (stereo not drawn) [FENCHONE]	> 46
CCCC[C@H](O)c1ccccc1 [FENIPENTOL]	> 46
Cn1cc(O)nc1NC(=O)Nc1cccc(Cl)c1 [FENOBAMUM]	> 46
Oc1ccc(C2CNCCc3c2cc(O)c(O)c3Cl)cc1 (stereo not drawn) [FENOLDOPAM]	> 46
C[N+]1(CCC(C(N)=O)(c2ccccc2)c2ccccc2)CCCCC1 [FENPIVERINII BROMIDUM]	> 46
Cl.O=C1NCC2(CCN(CCc3ccccc3)CC2)O1 [FENSPIRIDE HYDROCHLORIDE]	> 46
Cc1ccc(/C=N/n2c(-c3ccccc3)csc2=S)cc1 [FEZATIONE]	> 46
NC(=O)C1CC2(NC(=O)NC2=O)c2cc(F)ccc2O1 (stereo not drawn) [FIDARESTAT]	> 46
Cl.O=C(COc1ccc(Cl)cc1)N1CCN(Cc2ccc3c(c2)OCO3)CC1 [FIPEXIDE HYDROCHLORIDE]	> 46
O=C(NCC1CCCCN1)c1cc(OCC(F)(F)F)ccc1OCC(F)(F)F (stereo not drawn) [FLECAINIDE]	> 46
CN1CCN(c2c(F)cc3c(=O)c(C(=O)O)cn(CCF)c3c2F)CC1 [FLEROXACIN]	> 46
CCC(=O)c1c(O)cc(O)cc1O [FLOPROPIONE]	> 46
COc1ccccc1N1CCN(CCCC(=O)c2ccc(F)cc2)CC1 [FLUANISONUM]	> 46
Cc1onc(-c2c(F)cccc2Cl)c1C(=O)NC1C(=O)N2C1SC(C)(C)C2C(=O)[O-].O.[Na+] (stereo not drawn) [FLUCLOXACILLIN MAGNESIUM]	> 46
OC(Cn1cncn1)(Cn1cncn1)c1ccc(F)cc1F [FLUCONAZOLE]	> 46
CCOC(=O)c1ncn2c1CN(C)C(=O)c1cc(F)ccc1-2 [FLUMAZENIL]	> 46

SMILES	IC50 of cell viability [µM]
CC1CCC2=C3N1\C=C(C(O)=O)/C(=O)C3=CC(=C2)F (stereo not drawn) [FLUMEQUINE]	> 46
Fc1ccc(C(c2ccc(F)cc2)N2CCN(C/C=C/c3ccccc3)CC2)cc1 [FLUNARIZINE]	> 46
CC12C=CC(=O)C=C1[C@@H](F)CC1C2C(O)CC2(C)C1CC[C@]2(O)C(=O)CO (stereo partly drawn) [FLUPREDNISOLONE]	> 46
FC(F)(F)COCC(F)(F)F [FLUROTYLUM]	> 46
c1ccc(OCc2ccc(CCCN3CCOCC3)cc2)cc1 [FOMOCAINUM]	> 46
C[C@]12CCC(=O)C(=O)C1CC[C@@H]1[C@@H]2CC[C@]2(C)C(=O)CC[C@@H]12 (stereo partly drawn) [FORMESTANUM]	> 46
CC(C)CN(C[C@@H](OP(=O)([O-])[O-])[C@H](Cc1ccccc1)NC(=O)O[C@@H]1CCOC1)[S+](=O)([O-])c1ccc(N)cc1 [FOSAMPRENAVIR CALCIUM]	> 46
O=C([O-])P(=O)([O-])[O-].[Na+].[Na+].[Na+] [FOSCARNET SODIUM]	> 46
CC1OC1P(=O)([O-])[O-].[Ca+2] (stereo not drawn) [FOSFOMYCIN]	> 46
O=C(O)c1ccccc1OP(=O)(O)O [FOSFOSAL]	> 46
O=P(O)(O)OC[C@H]1O[C@](O)(COP(=O)(O)O)[C@@H](O)[C@@H]1O [FOSFRUCTOSUM]	> 46
CCC(=O)O[C@@H](OP(=O)(CCCCc1ccccc1)CC(=O)N1C[C@H](C2CCCCC2)C[C@H]1C(=O)[O-])C(C)C (stereo partly drawn) [FOSINOPRIL SODIUM]	> 46
N[C@@H](CSCCCO)C(=O)O [FUDOSTEINE]	> 46
COC1C(OC(=O)/C=C/C=C/C=C/C=C/C(=O)O)CCC2(CO2)C1C1(C)OC1CC=C(C)C (stereo not drawn) [FUMAGILLIN]	> 46
Cc1nc2c([nH]1)c(=O)n(C)c(=O)n2Cc1ccco1 [FURAFYLLINE]	> 46
O=C([O-])c1cc2cc(Cc3cccnc3)ccc2o1.[Na+] [FUREGRELATE SODIUM]	> 46
C/C(=C(/CCO)SSC[C@@H]1CCCO1)N(C=O)Cc1cnc(C)nc1N [FURSULTIAMINE HYDROCHLORIDE]	> 46
Cc1nc[nH]c1CC1CCc2c(C)c3ccccc3n2C1=O (stereo not drawn) [Fabesetron]	> 46
CC(C)\C1=C(/CN(C)[C@@H](C)CC2=CC=CC=C2)N(C)N(C3=CC=CC=C3)C1=O [Famprofazone]	> 46
c1ccc(CCNc2nc(-c3ccccc3)cs2)cc1 [Fanetizole]	> 46
C[C@@H](O)[C@@H]1C(=O)N2C(C(=O)O)=C([C@H]3CCCO3)SC12 (stereo partly drawn) [Faropenem]	> 46
O=[S+]([O-])(c1cccc2cnccc12)N1CCCNCC1 [Fasudil hydrochloride]	> 46
Cc1nc(-c2ccc(OCC(C)C)c(C#N)c2)sc1C(=O)O [Febuxostat]	> 46
